From ChEMBL document CHEMBL5126602, “Polo-like Kinase 1 Inhibitors in Human Cancer Therapy: Development and Therapeutic Potential” (J Med Chem, 2022)
pEC50, pIC50: −log10 of the molar value. One block for each molecule: values may come before it. Numbered stars: 1 amine (or outer) side, 2 acyl side, 3 side chain; on linkers, the order of the positions; unused ones are H or OH. Square brackets hold non-standard residues; d marks the D form. Peptide text beside a SMILES is read from it. X1 = O=C([C@H](Cc1cncn1CCCCc1cn(Cc2ccc(Oc3ccccc3)cc2F)nn1)N[*:1])[*:2]; pT = C[C@@H](OP(=O)(O)O)[C@H](N)C(=O)O

What was measured:
[1] = biological target: T1, Serine/threonine-protein kinase PLK2 (Homo sapiens, UniProt Q9NYY3); test: Inhibition of Myc-tagged PLK2 PBD (unknown origin) expressed in HEK293T cells using 5CF-GPMQTSpTPKNG-NH2 as substrate preincubated for 30 mins followed by substrate addition and measured after 30 mins by fluorescence polarization assay
[2] = biological target: T2, Serine/threonine-protein kinase PLK1 (Homo sapiens, UniProt P53350); test: Inhibition of PLK1 in thymidine synchronized human HeLa cells using casein as substrate preincubated with compound for 13 hrs followed by substrate addition and measured after 12 to 36 hrs in the presence of [gamma33P]ATP by autoradiography based Western blot analysis; format: cell-based
MCF7 = test: Antiproliferative activity against human MCF7 cells assessed as reduction in cell proliferation incubated for 72 hrs; format: functional, cell-based; conditions: MCF7, 72 h
A-431 = test: Antiproliferative activity against human A-431 cells assessed as reduction in cell proliferation incubated for 72 hrs; format: functional, cell-based; conditions: A-431, 72 h
SK-OV-3 = test: Antiproliferative activity against human SK-OV-3 cells assessed as reduction in cell viability incubated for 72 hrs; format: functional, cell-based; conditions: SK-OV-3, 72 h
HCT-15 = test: Antiproliferative activity against human HCT-15 cells assessed as reduction in cell viability incubated for 72 hrs; format: functional, cell-based; conditions: HCT-15, 72 h
U2OS = test: Antiproliferative activity against human U2OS cells assessed as reduction in cell viability incubated for 72 hrs; format: functional, cell-based
A549 = test: Antiproliferative activity against human A549 cells assessed as reduction in cell viability incubated for 72 hrs; format: functional, cell-based; conditions: A549, 72 h
HT-29 = test: Antiproliferative activity against human HT-29 cells assessed as reduction in cell viability incubated for 72 hrs; format: functional, cell-based; conditions: HT-29, 72 h
PC-3 = test: Antiproliferative activity against human PC-3 cells assessed as reduction in cell viability incubated for 72 hrs; format: functional, cell-based; conditions: PC-3, 72 h
LN-229 = test: Antiproliferative activity against human LN-229 cells assessed as reduction in cell viability incubated for 72 hrs; format: functional, cell-based; conditions: LN-229, 72 h
SKW 6.4 = test: Antiproliferative activity against human SKW 6.4 cells assessed as reduction in cell viability incubated for 72 hrs; format: functional, cell-based; conditions: SKW 6.4, 72 h
Detroit 562 = test: Antiproliferative activity against human Detroit 562 cells assessed as reduction in cell viability incubated for 72 hrs; format: functional, cell-based; conditions: Detroit 562, 72 h
[3] = biological target: T2, Serine/threonine-protein kinase PLK1; test: Inhibition of biotin labelled PoloBoxtide binding to GST/His-fused full length PLK1 (unknown origin) expressed in baculovirus infected Sf9 cells
[4] = biological target: T2, Serine/threonine-protein kinase PLK1; test: Inhibition of PLK1 (unknown origin) in the presence of ATP by ADP-Glo-kinase assay
[5] = biological target: T1, Serine/threonine-protein kinase PLK2; test: Inhibition of PLK2 (unknown origin) in the presence of ATP by ADP-Glo-kinase assay
[6] = biological target: T3, Serine/threonine-protein kinase PLK3 (Homo sapiens, UniProt Q9H4B4); test: Inhibition of PLK3 (unknown origin) in the presence of ATP by ADP-Glo-kinase assay
Target sequence in this assay (Q9H4B4 whole entry, the tested form may be a part): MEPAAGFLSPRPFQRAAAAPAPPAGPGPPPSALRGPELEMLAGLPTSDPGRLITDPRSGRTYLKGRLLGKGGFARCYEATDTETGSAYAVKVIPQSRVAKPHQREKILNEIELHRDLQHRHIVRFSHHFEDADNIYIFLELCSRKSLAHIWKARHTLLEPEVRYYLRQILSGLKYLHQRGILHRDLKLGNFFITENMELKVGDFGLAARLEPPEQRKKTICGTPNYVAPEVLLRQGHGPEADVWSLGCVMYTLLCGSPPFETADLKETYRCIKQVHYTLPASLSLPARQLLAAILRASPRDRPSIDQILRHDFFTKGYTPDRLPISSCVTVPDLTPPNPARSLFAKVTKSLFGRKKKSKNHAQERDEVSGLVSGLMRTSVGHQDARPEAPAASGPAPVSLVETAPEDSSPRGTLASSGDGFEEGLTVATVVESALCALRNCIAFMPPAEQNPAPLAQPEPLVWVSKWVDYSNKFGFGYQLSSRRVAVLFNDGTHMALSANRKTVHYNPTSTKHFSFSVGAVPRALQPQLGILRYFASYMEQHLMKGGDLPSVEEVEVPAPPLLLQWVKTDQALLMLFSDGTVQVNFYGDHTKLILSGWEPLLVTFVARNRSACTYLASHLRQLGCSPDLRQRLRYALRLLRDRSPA

[7] = biological target: T2, Serine/threonine-protein kinase PLK1; test: Inhibition of 5-carboxyfluoresceinGPMQSpTPLNG-OH peptide binding to PLK1 (326 to 603 residues) PBD (unknown origin) preincubated for 1 hrs with compound followed by peptide addition and measured after 75 mins by fluorescence polarization assay
[8] = biological target: T1, Serine/threonine-protein kinase PLK2; test: Inhibition of 5-carboxyfluorescein-GPMQTSpTPKNG-OH peptide binding to PLK2 (355 to 685 residues) PBD (unknown origin) preincubated for 1 hrs with compound followed by peptide addition and measured after 75 min by fluorescence polarization assay
[9] = biological target: T3, Serine/threonine-protein kinase PLK3; test: Inhibition of 5-carboxyfluorescein-GPLATSpTPKNG-OH peptide binding to PLK3 (335 to 646 residues) PBD (unknown origin) at 100 uM preincubated for 1 hrs with compound followed by peptide addition and measured after 75 mins by fluorescence polarization assay; conditions: time 135.0 min
Target sequence in this assay (Q9H4B4 whole entry, looked up, the tested form may be a part): as the sequence (Q9H4B4 whole entry, the tested form may be a part) above

HeLa [10] = test: Antiproliferative activity against human HeLa cells assessed as inhibition of cell proliferation incubated for 24 hrs by BCA assay; format: functional, cell-based
[11] = Half-life in rat liver microsomes; format: ADME, Microsome
[12] = Solubility of the compound; format: physicochemical
[13] = biological target: T2, Serine/threonine-protein kinase PLK1; test: Inhibition of biotinylated p-T78 peptide binding to human HA-EGFP-PLK1 expressed in HEK293-A cells using TMB as substrate incubated for 1 hrs by ELISA plate reader based analysis
[14] = biological target: Serine/threonine-protein kinase PLK1 (Homo sapiens, UniProt P53350, T210D); test: Inhibition of PLK1 T210D mutant kinase domain (unknown origin) using casein as substrate preincubated for 3 hrs followed by substrate addition and measured after 30 mins in the presence of ATP by ADP-Glo kinase assay
[15] = biological target: T2, Serine/threonine-protein kinase PLK1; test: Inhibition of biotinylated PLHSpT peptide binding to n-terminal GST-tagged full length human PLK1 PBD preincubated with compound for 30 mins followed by peptide addition and measured after 1 hrs by time-resolved fluorescence energy transfer assay
HeLa [16] = test: Antiproliferative activity against human HeLa cells assessed as inhibition of cell proliferation incubated for 72 hrs by MTT assay; format: functional, cell-based
[17] = biological target: T2, Serine/threonine-protein kinase PLK1; test: Inhibition of PLK1 PBD (unknown origin) dependent binding
MV4-11 = test: Antiproliferative activity against human MV4-11 cells assessed as inhibition of cell growth incubated for 24 hrs by CCK-8 assay; format: functional, cell-based; conditions: MV4-11, 24 h
[18] = biological target: T1, Serine/threonine-protein kinase PLK2; test: Inhibition of 5-carboxyfluorescein-GPMQTSpTPKNG-OH peptide binding to C-terminal 6His-tagged human PLK2 (355 to 685 residues) PBD expressed in Rosetta BL21 (DE3) cells preincubated for 1 hrs with compound followed by peptide addition and measured immediately by fluorescence polarization assay
[19] = biological target: T2, Serine/threonine-protein kinase PLK1; test: Inhibition of 5-carboxyfluoresceinGPMQSpTPLNG-OH peptide binding to human PLK1 (326 to 603 residues) PBD expressed in Rosetta BL21 (DE3) cells preincubated for 1 hrs with compound followed by peptide addition and measured immediately by fluorescence polarization assay
[20] = biological target: T2, Serine/threonine-protein kinase PLK1; test: Inhibition of 5-carboxyfluoresceinGPMQSpTPLNG-OH peptide binding to N-terminal His7-tagged human PLK1 (326 to 603 residues) PBD expressed in Escherichia coli BL21 (DE3) cells preincubated for 1 hrs with compound followed by peptide addition and measured after 1 hrs by fluorescence polarization assay
[21] = biological target: T1, Serine/threonine-protein kinase PLK2; test: Inhibition of 5-carboxyfluorescein-GPMQTSpTPKNG-OH peptide binding to PLK2 (355 to 685 residues) PBD (unknown origin) preincubated for 1 hrs with compound followed by peptide addition and measured after 1 hrs by fluorescence polarization assay
[22] = biological target: T3, Serine/threonine-protein kinase PLK3; test: Inhibition of 5-carboxyfluorescein-GPLATSpTPKNG-OH peptide binding to PLK3 (335 to 646 residues) PBD (unknown origin) at 100 uM preincubated for 1 hrs with compound followed by peptide addition and measured after 1 hrs by fluorescence polarization assay; conditions: time 2.0 hrs
Target sequence in this assay (Q9H4B4 whole entry, looked up, the tested form may be a part): as the sequence (Q9H4B4 whole entry, the tested form may be a part) above

[23] = biological target: T2, Serine/threonine-protein kinase PLK1; test: Inhibition of human PLK1 in the presence of ATP
[24] = biological target: T2, Serine/threonine-protein kinase PLK1; test: Inhibition of 5-carboxyfluoresceinGPMQSpTPLNG-OH peptide binding to PLK1 (326 to 603 residues) PBD (unknown origin) preincubated for 1 hrs with compound followed by peptide addition and measured after 1 hrs by fluorescence polarization assay

T2 sequence (P53350 whole entry): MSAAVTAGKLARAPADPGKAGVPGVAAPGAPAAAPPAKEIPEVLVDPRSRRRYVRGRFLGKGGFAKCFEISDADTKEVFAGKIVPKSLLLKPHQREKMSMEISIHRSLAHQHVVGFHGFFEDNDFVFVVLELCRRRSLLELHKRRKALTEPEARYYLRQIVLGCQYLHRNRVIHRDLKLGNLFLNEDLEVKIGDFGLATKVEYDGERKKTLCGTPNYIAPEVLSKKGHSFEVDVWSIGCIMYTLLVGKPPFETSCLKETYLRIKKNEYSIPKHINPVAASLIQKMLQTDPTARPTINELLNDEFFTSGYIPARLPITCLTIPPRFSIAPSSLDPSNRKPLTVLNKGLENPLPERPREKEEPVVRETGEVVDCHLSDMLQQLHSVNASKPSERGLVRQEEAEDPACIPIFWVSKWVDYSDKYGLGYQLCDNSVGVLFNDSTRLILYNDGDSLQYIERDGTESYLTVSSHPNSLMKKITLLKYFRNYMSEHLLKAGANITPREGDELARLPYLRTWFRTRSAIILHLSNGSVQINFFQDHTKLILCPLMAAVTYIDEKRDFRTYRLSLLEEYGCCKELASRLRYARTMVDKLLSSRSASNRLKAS
T1 sequence (Q9NYY3 whole entry): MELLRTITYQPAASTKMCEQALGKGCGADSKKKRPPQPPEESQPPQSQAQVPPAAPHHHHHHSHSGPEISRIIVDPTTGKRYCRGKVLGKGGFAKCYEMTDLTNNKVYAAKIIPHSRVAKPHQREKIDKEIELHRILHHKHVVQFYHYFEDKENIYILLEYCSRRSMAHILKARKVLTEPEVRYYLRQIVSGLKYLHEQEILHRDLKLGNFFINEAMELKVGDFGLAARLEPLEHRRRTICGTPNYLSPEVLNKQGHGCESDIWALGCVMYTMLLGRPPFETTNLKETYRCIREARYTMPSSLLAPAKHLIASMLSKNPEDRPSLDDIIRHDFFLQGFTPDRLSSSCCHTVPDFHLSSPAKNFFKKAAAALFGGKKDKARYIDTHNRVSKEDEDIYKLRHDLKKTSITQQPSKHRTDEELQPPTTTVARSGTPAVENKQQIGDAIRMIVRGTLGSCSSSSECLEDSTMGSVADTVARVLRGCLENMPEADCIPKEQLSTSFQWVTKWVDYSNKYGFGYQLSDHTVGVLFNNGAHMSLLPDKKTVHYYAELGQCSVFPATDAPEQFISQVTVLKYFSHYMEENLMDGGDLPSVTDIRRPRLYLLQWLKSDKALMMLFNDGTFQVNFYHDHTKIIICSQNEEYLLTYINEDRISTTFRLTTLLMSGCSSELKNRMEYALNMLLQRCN
Sequence of Serine/threonine-protein kinase PLK1 (Homo sapiens, UniProt P53350, T210D) (P53350 2-603 T210D limits assumed): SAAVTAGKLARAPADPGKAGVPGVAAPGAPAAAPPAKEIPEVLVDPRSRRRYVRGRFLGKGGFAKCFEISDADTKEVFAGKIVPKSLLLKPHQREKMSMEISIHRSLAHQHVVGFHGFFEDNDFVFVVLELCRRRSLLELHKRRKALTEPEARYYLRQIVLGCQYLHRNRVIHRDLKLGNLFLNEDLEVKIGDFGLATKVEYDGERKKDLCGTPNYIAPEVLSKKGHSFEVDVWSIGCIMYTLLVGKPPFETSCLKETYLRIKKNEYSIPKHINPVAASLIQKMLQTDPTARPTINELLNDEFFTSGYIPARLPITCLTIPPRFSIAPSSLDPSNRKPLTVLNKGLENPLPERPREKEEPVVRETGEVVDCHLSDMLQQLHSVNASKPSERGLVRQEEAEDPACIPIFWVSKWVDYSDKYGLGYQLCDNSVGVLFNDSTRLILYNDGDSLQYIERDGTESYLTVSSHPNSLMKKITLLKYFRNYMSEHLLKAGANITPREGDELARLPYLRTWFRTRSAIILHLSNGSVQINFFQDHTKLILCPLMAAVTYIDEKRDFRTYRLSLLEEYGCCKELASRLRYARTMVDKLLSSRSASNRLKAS

Compound: CC(=O)N1CCC[C@H]1C(=O)N[C@@H](CC(C)C)C(=O)N[C@@H](Cc1cn(CCCCCCCCc2ccccc2)nn1)C(=O)N[C@@H](CO)C(=O)N[C@H](C(N)=O)[C@@H](C)OP(=O)(O)O
pIC50 [1]: 6.16

Compound: Cc1ccc(NC(=S)NCCNc2nccc(C(F)(F)F)n2)c(C)c1
pIC50 [3]: 6.00

Compound: CC1=C/C(=N/OC(=O)c2ccc(CNC(=O)CCc3cn(CCCCCCOCCOCCNC(=O)[C@H](C)CCC45CC6CC(CC(C6)C4)C5)nn3)cc2C)C(C)=CC1=O
pIC50 [7]: 4.32
pIC50 [8]: 4.26
inhibition [9]: 34%
pIC50 (HeLa [10]): 5.04

Compound: O=c1c2cc(F)ccc2n2c(=S)[nH]nc2n1CCC(F)(F)F
half-life [11]: > 30 min
solubility [12]: > 60 µg/mL

Compound: CCCCCCCCCC1=CO[C@]2(C[C@H](C(=O)O)[C@@](CC(=O)O)(C(=O)OCCCC)O2)C1=O
pIC50 [17]: 3.99

Compound: O=c1c2cc(F)ccc2n2c(=S)[nH]nc2n1CC1CC1
half-life [11]: > 30 min
solubility [12]: > 60 µg/mL

Compound: CC[C@@H]1C(=O)N(C)c2cnc(Nc3ccc(C(=O)NCCOCCOCCNc4cccc5c4C(=O)N(C4CCC(=O)NC4=O)C5=O)cc3OC)nc2N1C1CCCC1 (stereo partly drawn)
pIC50 (MV4-11): 8.35

Compound: CC(=O)N1CCC[C@H]1C(=O)N[C@@H](CC(C)C)C(=O)N[C@@H](Cc1cncn1CCCCc1cn(Cc2ccc(Oc3ccccc3)cc2F)nn1)C(=O)N[C@@H](CO)C(=O)N[C@H](C(N)=O)[C@@H](C)OP(=O)(O)O (Ac-PL[X1]S[pT]-NH2)
pIC50 [1]: 5.23

Compound: C=CCn1c(=O)c2cnc(Nc3ccc(N4CCN(C)CC4)cc3)nc2n1-c1cccc(C(C)(C)O)n1 [ADAVOSERTIB]
pIC50 [23]: 7.82

Compound: CC1=C/C(=N/OC(=O)c2ccc(CNC(=O)CCc3cn(CCCCCCOCCOCCNC(=O)CC45CC6CC(CC(C6)C4)C5)nn3)cc2C)C(C)=CC1=O
pIC50 [21]: 4.28
inhibition [22]: 47%
pIC50 [24]: 4.98
pIC50 (HeLa [10]): 4.85

Compound: CCCCCCCCCC1=CO[C@]2(C[C@H](C(=O)O)[C@@](CC(=O)O)(C(=O)O)O2)C1=O
pIC50 [17]: 3.89

Further lines, with some results ahead:

pEC50 [2]: 9.70
pEC50 (MCF7): 4.92
pEC50 (A-431): 4.48
pEC50 (SK-OV-3): 5.30
pEC50 (HCT-15): 5.30
pEC50 (U2OS): 5.30
pEC50 (A549): 5.30
pEC50 (HT-29): 5.30
pEC50 (PC-3): 5.30
pEC50 (SKW 6.4): 5.30
Compound: COc1ccc(CCNCc2ccc(OCc3ccc(Cl)nc3)c(OC)c2)cc1OC
pEC50 (LN-229): 5.30
pEC50 (Detroit 562): 5.30

pIC50 [4]: 5.20
pIC50 [5]: 3.62
pIC50 [6]: 2.79
Compound: O=C1C[C@@H](c2ccccc2)Oc2cc(O)c(O)c(O)c21

pIC50 [4]: 5.05
pIC50 [5]: 3.50
pIC50 [6]: 4.40
Compound: O=c1cc(-c2ccccc2)oc2cc(O)c(O)c(O)c12 [BAICALEIN]

pIC50 [13]: 5.35
Compound: C[C@H](OP(=O)(O)O)[C@H](NC(=O)c1ccc2c(c1)nc(CCCCc1ccccc1)n2CCc1ccccc1)C(N)=O

pIC50 [14]: 5.44
Compound: O=C(O)[C@H]1O[C@@H](Oc2cc3oc(-c4ccccc4)cc(=O)c3c(O)c2O)[C@H](O)[C@@H](O)[C@@H]1O [BAICALIN]

pIC50 [15]: 5.68
pIC50 (HeLa [16]): 4.65
Compound: COc1c2c(cc3c1C(CC(=O)c1ccccn1)[N+](C)(C)CC3)OCO2 (stereo not drawn)

pIC50 [4]: 4.99
pIC50 [5]: 3.02
pIC50 [6]: 2.29
Compound: COc1cc(O)c2c(=O)cc(-c3ccccc3)oc2c1OC [Moslosooflavone]

half-life [11]: > 30 min
solubility [12]: > 60 µg/mL
Compound: O=c1c2cc(F)ccc2n2c(=S)[nH]nc2n1CCc1ccncc1

half-life [11]: > 30 min
solubility [12]: > 60 µg/mL
Compound: O=c1c2cc(F)ccc2n2c(=S)[nH]nc2n1CCc1ccccn1

pIC50 [18]: 4.73
Compound: CC1=CC(=O)C(C(C)C)=C/C1=N/OC(=O)c1ccccc1C

half-life [11]: 20.1 min
solubility [12]: > 60 µg/mL
Compound: COc1cccc(CC(=O)NCCCn2c(=O)c3cc(F)ccc3n3c(=S)[nH]nc23)c1

half-life [11]: > 30 min
solubility [12]: > 60 µg/mL
Compound: N#Cc1ccc(CC(=O)NCCCn2c(=O)c3cc(F)ccc3n3c(=S)[nH]nc23)cc1

pIC50 [3]: 4.70
Compound: Cc1onc(-c2ccccc2)c1/C=C1\C(=O)Nc2ccccc21

pIC50 [19]: 4.75
Compound: N#Cc1cccc(CN2C[C@@H]3C[C@H](C2)c2c(-c4ccc5ccccc5c4)ccc(=O)n2C3)c1

pIC50 [20]: 5.87
pIC50 [21]: 4.85
inhibition [22]: 49%
Compound: CC1=C/C(=N/OC(=O)c2ccccc2C)C(C)=CC1=O
